Experimental data as given in patent US9827216B2, “Nutritional support to prevent and/or mitigate bone marrow toxicity from a cancerous tumor” (Nestec S.A., priority 2008, dated 2017).

How the values were obtained:
[1] = test system: tongue and/or esophageal tumors; assay: Carcinogen induction of tongue and/or esophageal tumors; format: in vivo, CB6F1-Tg rasH2@Jcl mice; conditions: carcinogen-induced
From the text: Male CB6F1-Tg rasH2@Jcl mice (Tg) at 8 weeks of age are obtained and maintained in plastic cages. They are all allowed free access to a powdered basal diet of CRF (Charles River Formula)-1. A carcinogen, 4-nitroquinoline 1-oxide is used to induce tongue and/or esophageal tumors in this study.

γδ T cells = conditions: acid hydrolysed, diluted in media; peripheral blood mononuclear cells; (5%-75%); cited from earlier work
[2] = test system: red blood cell, white blood cell and immune cell populations; assay: Haematological evaluation and flow cytometric analysis, test diets with chemotherapy (Example 2); format: in vivo, mice; conditions: for Global lymphocyte population: following chemotherapy, supplemented diets
Description: (§1) The animals were distributed into 7 different group diets. There was a control group that received the diet AIN 93 for adult rodents (maintenance). Test diets were administered in doses appropriate to the animal model: (a) Ctrl diet were supplemented with 1% (w/w) L-arginine, (b) 25% of the protein was replaced by glutamine, (c) 1% (w/w) L-citrulline, (d) 1 g/Kg body weight with active hexose correlated compound, (e) 20 mg/day of RNA nucleotides and (f) 25 mg/day of lactoferrin. […] Control animals without chemotherapeutic treatment were run in parallel for all tested diets. Body weight was assessed every two days. Blood samples were obtained at day 2, 4 and 10 after the chemo-treatment and at sacrifice (14 or 28 days). An autopsy was performed and tumor mass was assessed.

[3] = test system: MCA-OVA 1×10^6 tumor cells; assay: Tumor growth evaluation, test diets with or without chemotherapy (Example 2); format: in vivo, mice
Description: The animals were distributed into 7 different group diets. There was a control group that received the diet AIN 93 for adult rodents (maintenance). […] Control animals without chemotherapeutic treatment were run in parallel for all tested diets. Body weight was assessed every two days. Blood samples were obtained at day 2, 4 and 10 after the chemo-treatment and at sacrifice (14 or 28 days). An autopsy was performed and tumor mass was assessed.
Methylcholanthrene (MCA) induced sarcoma cell line expressing the exogenous antigen ovalbumin (OVA) was grown in DMEM or RPMI 1640 supplemented with 2 mM L-glutamine, 10 mM HEPES, 20 μM 2-mercaptoethanol, 150 U/mL streptomycin, 200 U/mL penicillin, and 10% heat-inactivated FBS. 1×10^6 tumor cells were injected in the flank of the mice 6 days prior to the chemotherapy.
Growth of tumors was monitored every 2 d by using calipers, and tumor volume was calculated by using the formula length×width×width×0.52 mm^3.

immune cells = assay: Nutritional intervention on immune cells in tumor burdened animals with and without chemotherapy (FIG. 11); format: in vivo; conditions: during the second phase (tumor-induced toxicity)
From the text: FIG. 11 illustrates a graph of the effect of nutritional intervention on immune cells in tumor burdened animals with and without chemotherapy in accordance with an embodiment of the present disclosure.

[4] = test system: red blood cell, white blood cell and immune cell populations; assay: Haematological evaluation and flow cytometric analysis of tumor-bearing mice after chemotherapy (Example 1); format: in vivo; conditions: after the chemotherapy
[5] = Body weight of tumor-bearing mice on test diets with chemotherapy (Example 2); format: in vivo; conditions: maximal dose (10 mg/kg)
Description: as §1

[6] = Body weight of tumor-bearing mice after chemotherapy (Example 1); conditions: maximal dose (10 mg/kg), of the initial body weight
Description: Inbred eight-week-old C57BL/6 (H-2b) mice were used in the experiments. Mice were inoculated subcutaneously (s.c.) on the left flank with 1×10^6 tumor cells, and tumor growth was monitored every 2 days by caliper measurement. 6 days after the tumor inoculation the animals were treated either with oxaliplatin or doxorubicin. Tumor growth was monitored every two days after the chemotherapeutic treatment and they were sacrificed after two weeks of tumor implantation. Some experiments were carried out until 28 days post-chemo to better assess tumor growth.
Body weight was assessed every two days until sacrifice.

NK cell = conditions: about 750 mg per day for two weeks, cited from earlier work

With `O=[N+]([O-])c1cc[n+]([O-])c2ccccc12` [4-nitroquinoline 1-oxide] as the compound, how does the “mice developing tumors in the esophagus” value [1] read?
Its value is 60%.

And the “mice developing tumors on the tongue” value [1]?
Its value is 100%.

Which “expansion of γδ T cells” value (γδ T cells) does the source give for `CCNC(=O)CC[C@H](N)C(=O)O` [L-theanine] here?
Its value is 15 fold.

With `N=C(N)NCCC[C@H](N)C(=O)O` [arginine, L-arginine] as the compound, how does the “loss of CD3+ cells” value ([2]; around 10 days post-chemotherapy, supplemented diet) read?
Its value is “partially modulated”.

And the “fall of erythrocytes after chemotherapy” value ([2]; diet supplemented 1% (w/w), between days 6 and 10 post-chemo, vs control diet and other treatments (FIG. 3))?
The value was “prevented the marked fall of erythrocytes”.

And the tumor size ([3]; combination with the chemotherapy treatment vs chemotherapy alone (FIG. 4))?
The tumor size was “further reduced the tumor size”.

What about the “progression of the implanted tumor” value ([3]; supplemented diet compared to other groups) of the same compound?
The value was “delayed progression”.

And the “immune cell population / concentration” value (immune cells)?
Its value is “increase immune cell concentration”.

Which Global lymphocyte population [2] does the source give for `NC(=O)NCCC[C@H](N)C(=O)O` [citrulline, L-citrulline] here?
Its Global lymphocyte population is “less depressed”.

Which Global lymphocyte population [2] does the source give for `NC(=O)CC[C@H](N)C(=O)O` [glutamine] here?
Its Global lymphocyte population is “less depressed”.

Which results are given for `O=C1[O][Pt]2([NH][C@@H]3CCCC[C@H]3[NH]2)[O]C1=O` [oxaliplatin]?
white blood cell counts [4]: leukocyte counts that were higher that the baseline counts; Maximal weight loss [5]: around 15%; Maximal weight loss [6]: around 15%

For vitamin E, which NKG2D expression (NK cell; all patients studied) is on record?
Its NKG2D expression is “small but consistent induction”.

And the “NK cell cytolytic activity” value (NK cell; cancer patients)?
The value was “significantly improved”.
